Data as given in patent US7247615B2, “Peptide agonists of prostate-specific antigen and uses therefor” (priority 2001, dated 2007).

What was measured:
HLA-A2 = biological target: T1, HLA-A2 (Homo sapiens, UniProt P04439, D140Y/D185E/D98H/E176V/E277Q/G131W/G231S/I119V/I121R/I166T/I218V/L300P/L318F/N151K/N90K/P208A/P217A/Q86G/Q94H/R138H/R169H/T345S); experiment: Stability of peptide-HLA-A2 complex on T2A2 cells (brefeldin A); type: binding; conditions: 50 μg/ml overnight, 8-h observation period, FIG. 2
T1 construct: endogenous in cells; host or cells: T2A2 / 174CEM-T2 (T2) transport deletion mutant cell line
Method: FIG. 2. Comparison of the stability of the complex of the PSA-3 or PSA-3A peptide with HLA-A2. T2A2 cells were incubated with PSA-3 (open squares) or PSA-3A (closed squares) peptide at a concentration of 50 μg/ml overnight and then washed free of unbound peptide and incubated with brefeldin A to block delivery of new class I molecules to cell surface. At indicated times, cells were stained for the presence of surface peptide-HLA-A2 complexes. Results are expressed in relative % binding as compared to 100% binding at time zero.
Studies were then undertaken to examine the stability of the peptideMHC complex for peptides PSA-3 and PSA-3A. Peptides were incubated with T2A2 cells overnight, washed free of unbound peptide and incubated with brefeldin-A to block delivery of new class I molecules to the cell surface. At various time points, cells were analyzed for the presence of peptide-HLA-A2 complexes. […] Thus, both the ability of the peptide to bind MHC (FIGS. 1A–1B) and the stability (FIG. 2), i.e., avidity of the peptide-MHC complex, are greater for the PSA-3A peptide than the native PSA-3 peptide.

DCs = experiment: IL-12 production by peptide-pulsed DCs in the presence of T cells; type: cell-based, human
Method: It has been previously shown that the activation of T cells by peptidepulsed DCs is related to the level of IL-12 production by the DCs. Studies were therefore conducted to determine the levels of IL-12 production by DCs pulsed with PSA-3 and PSA-3A peptides in the presence of T cells. […] When DCs pulsed with the PSA3A peptide were incubated with both T cell lines, the DCs incubated with the T-PSA-3A line again produced higher levels of IL-12 than those peptide-pulsed DCs incubated with the T cell line T-PSA-3 (Table 3).

[1] = test system: HLA-A2/K^b transgenic mice; experiment: Immunization of HLA-A2.1/Kb transgenic mice with peptide-pulsed DCs, IFN-γ production by T cells; type: in vivo, mouse; conditions: 24 h
Text: Transgenic Mice. HLA-A2.1/K^b transgenic mice were kindly provided by Dr. L. Sherman (Scripps Laboratories, San Diego, Calif.). Transgenic mice express the product of the HLA-A2.1/Kb chimeric gene in which the alpha-3 domain of the heavy chain is replaced by mouse H-2/K^b domain, but the HLA-A2.1 alpha-1 and alpha-2 domains are unaltered (A. Vitiello et al., 1991, J. Exp. Med. 173:1007–1015; V. H. Engelhard et al., 1991, J. Immunol. 46:1226–1232).
In Vivo Immunization and Murine T cell Cultures. Three groups of HLA-A2.1/K^b transgenic mice (three mice per group) were immunized s.c. (subcutaneously) in the base of the tail with PSA-3 peptide-pulsed HLA-A2.1/K^b DC, PSA-3A peptide-pulsed DCs from HLA-A2.1/K^b transgenic mice, or DCs only. Peptides were used at a concentration of 50 μg/ml and DCs were used at 1×10^6 cell/mouse/injection. A total of three injections were given to each animal, 2 weeks apart. Mice injected with DCs only were used as controls. Mice were sacrificed 7 days after the last injection, and spleen cells were restimulated in vitro with 25 μg/ml of PSA-3 or PSA3A peptide with irradiated syngeneic spleen cell for 6 days. The cytokine production of these bulk cultures was tested. Peptide-pulsed Jurkat A2 (JA2 K^b) cells were used as stimulator cells. Jurkat 0201 K^b cells are stable transfectants of the human T cell leukemia line, Jurkat, which express the product of HLA-A0201K^b climeric gene (L. A. Sherman et al., 1992, Science 258:815–818).
The HLA-A2/K^b transgenic mouse has been previously reported to aid in the determination of the immunogenicity of HLA-A2 peptides for humans. This in vivo system was thus employed to further analyze and compare the immunogenicity of the PSA-3A peptide with that of the native PSA-3 peptide. DCs from the HLA-A2/K^b transgenic mice were pulsed with either the PSA-3 or the PSA-3A peptide and used to vaccinate HLA-A2b mice. DCs alone (no peptide) were also used as a control vaccine. After three vaccinations at 2-week intervals, T cells were isolated from splenocytes obtained 2 weeks after the last vaccination. The T cells were then incubated with Jurkat A2/K^b cells pulsed with the PSA-3 peptide, the PSA-3A peptide, or no peptide, and production of INF-γ was measured from supernatants after 24 h.

In the case of VLSNDVCAQV (SEQ ID NO:3) [PSA-3A], the “Stability of peptide-HLA-A2 complexes” value (HLA-A2) is reported as “more stable than PSA-3 complexes”, the “IL-12 PRODUCTION” value (DCs; APC DC, T cell line T-PSA-3, peptide 25 μg/ml, 10:1, 24 h, IVS-4) is reported as 6.0 pg/ml/5 × 10^5 DC and the “IL-12 PRODUCTION” value (DCs; APC DC, T cell line T-PSA-3A, peptide 25 μg/ml, 10:1, 24 h, IVS-4) is reported as 27.5 pg/ml/5 × 10^5 DC. The “IL-12 PRODUCTION” value (DCs; no APC, T cell line T-PSA-3, peptide 25 μg/ml, 24 h) was <0.6 pg/ml/5 × 10^5 DC, the “IL-12 PRODUCTION” value (DCs; no APC, T cell line T-PSA-3A, peptide 25 μg/ml, 24 h) was <0.6 pg/ml/5 × 10^5 DC and the “Production of IFN-γ” value ([1]; label = peptide pulsed on immunizing DCs, Jurkat A2/K^b cells pulsed with PSA-3A (25 μg/ml)) was 6,218.9 pg/ml/10^6 cells. For the same sequence, the “Production of IFN-γ” value ([1]; label = peptide pulsed on immunizing DCs, Jurkat A2/K^b cells with no peptide) was <37.0 pg/ml/10^6 cells, the “Production of IFN-γ” value ([1]; label = peptide pulsed on immunizing DCs, T cells restimulated with Jurkat A2/K^b cells pulsed with PSA-3 (25 μg/ml)) was 5,094.3 pg/ml/10^6 cells and the “Production of IFN-γ” value ([1]; mice immunized with DCs (no peptide), label = peptide pulsed on Jurkat A2/K^b cells) was <37.0 pg/ml/10^6 cells.
